Experimental data published in US8426429B2, “2-amino-quinazoline derivatives useful as inhibitors of β-secretase (BACE)” (Jansssen Pharmaceutica N.V., priority 2004, dated 2013).

Target: T1, β-secretase (BACE) (Homo sapiens, UniProt P56817)
T1 construct: purchased Panvera
Assay: BACE FS1 % Inhibition Assay
Format: biochemical
Description: The following reagents were used in this assay: sodium acetate, PEG8000 (Sigma), DMSO, HEPES, FS1 substrate [[…]] […] The FS1-substrate stock solution was prepared in DMSO as a 10 mg/mL solution. The FS1-substrate working solution was prepared by diluting the 10 mg/mL stock solution with substrate assay buffer to a final concentration of 300 μg/mL. The β-secretase (BACE) working solution was prepared by diluting a 0.83 mg/mL BACE stock solution with enzyme assay buffer to a final concentration of 4 μg/mL. Test compounds were dissolved in DMSO to 10 mM. […] The screening procedure for this assay was as follows: 15 μL of BACE working solution was pipetted into each well of a 96-well plate. To each well was then pipetted 2 μL of test compound at the selected concentration. Test compound and BACE were then mixed with a pipettor and incubated for 20 min at room temperature. To each well was then added 10 μL of the FS1 substrate working solution. The plates were then incubated for 1 hour at room temperature. […] The procedure for the blank was as follows. 15 μL of assay buffer was pipetted into each well to be used as a blank control. To each well was then added 2 μL of vehicle and 10 μL of FS1-substrate working solution. The plates were then incubated for 1 hour at room temperature. […] The procedure for the positive control was as follows: 15 μL of BACE working solution was pipetted into each well to be used as a positive control. To each well was then pipetted 2 μL of vehicle. Vehicle and BACE were then mixed with a pipettor and incubated for 20 min at room temperature. To each well was then added 10 μL of the FS1 substrate working solution. The plates were then incubated for 1 hour at room temperature. […] For test compounds, % inhibition was determined at each concentration as follows: [formula]

T1 sequence (P56817 46-501): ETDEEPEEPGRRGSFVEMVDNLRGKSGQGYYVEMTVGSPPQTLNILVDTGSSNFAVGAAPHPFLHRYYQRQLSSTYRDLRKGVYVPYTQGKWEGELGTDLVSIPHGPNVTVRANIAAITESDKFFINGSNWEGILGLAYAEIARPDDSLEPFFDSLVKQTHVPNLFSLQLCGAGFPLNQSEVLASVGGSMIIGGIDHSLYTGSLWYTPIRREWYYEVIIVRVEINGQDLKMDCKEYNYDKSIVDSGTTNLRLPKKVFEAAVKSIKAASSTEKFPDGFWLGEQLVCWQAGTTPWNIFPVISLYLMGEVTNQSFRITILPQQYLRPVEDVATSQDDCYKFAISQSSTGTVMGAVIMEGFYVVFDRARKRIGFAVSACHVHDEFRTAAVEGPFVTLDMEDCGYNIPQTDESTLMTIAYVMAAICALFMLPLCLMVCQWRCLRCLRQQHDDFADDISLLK

| Structure (SMILES) | % Inhibition (FS) (0.3 μM test compound) [%] | % Inhibition (FS) (1 μM test compound) [%] | % Inhibition (FS) (3 μM test compound) [%] |
| --- | --- | --- | --- |
| CCc1ccccc1-c1ccc2c(c1)CN(Cc1cccc(C(=O)N(C)C3CCCCC3)c1)C(N)=N2 [Compound 320] | −31 | <30 | <30 |
| CN(C(=O)c1cccc(CN2Cc3cc(-c4ccccc4-c4ccccc4)ccc3N=C2N)c1)C1CCCCC1 [Compound 321] | −33 | <30 | <30 |
| CC(=O)c1ccccc1-c1ccc2c(c1)CN(Cc1cccc(C(=O)N(C)C3CCCCC3)c1)C(N)=N2 [Compound 323] | <30 | <30 | 45 |
| CN(C(=O)c1cccc(CN2Cc3cc(-c4ccccc4OCc4ccccc4)ccc3N=C2N)c1)C1CCCCC1 [Compound 327] | <30 | <30 | 48 |
| CC(c1ccccc1)c1ccc2c(c1)CN(Cc1cccc(C(=O)N(C)C3CCCCC3)c1)C(N)=N2 (stereo not drawn) [Compound 332] | <30 | <30 | <30 |
| CCC(c1cccc(C(=O)N(C)C2CCCCC2)c1)N1Cc2cc(-c3ccccc3OC)ccc2N=C1N (stereo not drawn) [Compound 395] | 69 | 107 | 118 |
| CC(C)C(CC(=O)NC1CCCCC1)N1Cc2cc(Oc3ccccc3)ccc2N=C1N (stereo not drawn) [Compound 401] | <30 | <30 | 52 |
| CC(C)C(CC(=O)NC1C2CC3CC(C2)CC1C3)N1Cc2cc(Oc3ccccc3)ccc2N=C1N (stereo not drawn) [Compound 402] | <30 | 53 | 99 |
| NC1=Nc2ccc(Oc3ccccc3)cc2CN1CCCNC1CCCCC1 [Compound 403] | <30 | <30 | 66 |
| Cc1cccc(Sc2ccc3c(c2)CN(Cc2cccc(C(=O)N(C)C4CCCCC4)c2)C(N)=N3)c1 [Compound 405] | 43 | 106 | 118 |
| CCc1ccccc1Sc1ccc2c(c1)CN(Cc1cccc(C(=O)N(C)C3CCCCC3)c1)C(N)=N2 [Compound 406] | <30 | <30 | 50 |
| CC(C)c1ccc(Sc2ccc3c(c2)CN(Cc2cccc(C(=O)N(C)C4CCCCC4)c2)C(N)=N3)cc1 [Compound 407] | <30 | <30 | 48 |
| Cc1ccc(Sc2ccc3c(c2)CN(Cc2cccc(C(=O)N(C)C4CCCCC4)c2)C(N)=N3)cc1C [Compound 408] | <30 | 34 | 95 |
| Cc1cc(C)cc(Sc2ccc3c(c2)CN(Cc2cccc(C(=O)N(C)C4CCCCC4)c2)C(N)=N3)c1 [Compound 409] | <30 | <30 | 72 |
| COc1ccc(Sc2ccc3c(c2)CN(Cc2cccc(C(=O)N(C)C4CCCCC4)c2)C(N)=N3)cc1 [Compound 410] | <30 | 39 | 50 |
| COc1ccc(Sc2ccc3c(c2)CN(Cc2cccc(C(=O)N(C)C4CCCCC4)c2)C(N)=N3)cc1OC [Compound 411] | <30 | <30 | 55 |
| COc1ccccc1Sc1ccc2c(c1)CN(Cc1cccc(C(=O)N(C)C3CCCCC3)c1)C(N)=N2 [Compound 412] | <30 | <30 | 49 |
| CSc1ccc(Sc2ccc3c(c2)CN(Cc2cccc(C(=O)N(C)C4CCCCC4)c2)C(N)=N3)cc1 [Compound 413] | <30 | <30 | 53 |
| CN(C(=O)c1cccc(CN2Cc3cc(Sc4cccc5ccccc45)ccc3N=C2N)c1)C1CCCCC1 [Compound 414] | <30 | <30 | 27 |
| CN(C(=O)c1cccc(CN2Cc3cc(Sc4ccc5ccccc5c4)ccc3N=C2N)c1)C1CCCCC1 [Compound 415] | <30 | <30 | 63 |
| CNC(=O)c1ccccc1Sc1ccc2c(c1)CN(Cc1cccc(C(=O)N(C)C3CCCCC3)c1)C(N)=N2 [Compound 416] | <30 | <30 | −3 |

| Structure (SMILES) | % Inhibition (FS) (0.3 μM test compound) [%] | % Inhibition (FS) (1 μM test compound) [%] | % Inhibition (FS) (3 μM test compound) [%] |
| --- | --- | --- | --- |
| CC(=O)Nc1ccc(Sc2ccc3c(c2)CN(Cc2cccc(C(=O)N(C)C4CCCCC4)c2)C(N)=N3)cc1 [Compound 417] | <30 | <30 | 78 |
| CCC(c1cccc(C(=O)N(C2CCCCC2)C2CCCCC2)c1)N1Cc2cc(Oc3ccccc3)ccc2N=C1N (stereo not drawn) [Compound 419] | 38 | 64 | 109 |
| CN(C(=O)CCC(c1ccc(-c2ccccc2)cc1)N1Cc2cc(Oc3ccccc3)ccc2N=C1N)C1CCCCC1 (stereo not drawn) [Compound 420] | <30 | <30 | 53 |
| Cc1ccc(C(CCC(=O)N(C)C2CCCCC2)N2Cc3cc(Oc4ccccc4)ccc3N=C2N)cc1 (stereo not drawn) [Compound 421] | <30 | 71 | 111 |
| NC1=Nc2ccc(Oc3ccccc3)cc2CN1CCNCC1CCCCC1 [Compound 427] | <30 | 26 | 62 |
| CN(CCN1Cc2cc(Oc3ccccc3)ccc2N=C1N)C1CCCCC1 [Compound 429] | <30 | <30 | <30 |
| COc1cccc(Nc2ccc3c(c2)CN(Cc2cccc(C(=O)N(C)C4CCCCC4)c2)C(N)=N3)c1 [Compound 433] | <30 | 33 | 88 |
| COc1ccc(Nc2ccc3c(c2)CN(Cc2cccc(C(=O)N(C)C4CCCCC4)c2)C(N)=N3)cc1 [Compound 434] | <30 | <30 | <30 |
| Cc1cccc(Nc2ccc3c(c2)CN(Cc2cccc(C(=O)N(C)C4CCCCC4)c2)C(N)=N3)c1 [Compound 435] | <30 | <30 | 85 |
| CN(C(=O)c1cccc(CN2Cc3cc(Nc4ccc5ccccc5c4)ccc3N=C2N)c1)C1CCCCC1 [Compound 436] | <30 | 37 | 50 |
| CN(C(=O)c1cccc(CN2Cc3cc(Nc4ccc(C5CCCCC5)cc4)ccc3N=C2N)c1)C1CCCCC1 [Compound 437] | <30 | <30 | 38 |
| CN(C)c1ccc(Nc2ccc3c(c2)CN(Cc2cccc(C(=O)N(C)C4CCCCC4)c2)C(N)=N3)cc1 [Compound 438] | <30 | <30 | <30 |
| CN(C(=O)c1cccc(CN2Cc3cc(Nc4ccc(N5CCOCC5)cc4)ccc3N=C2N)c1)C1CCCCC1 [Compound 439] | <30 | <30 | <30 |
| CCOc1cccc(Nc2ccc3c(c2)CN(Cc2cccc(C(=O)N(C)C4CCCCC4)c2)C(N)=N3)c1 [Compound 440] | <30 | 35 | 72 |
| CN(C(=O)c1cccc(CN2Cc3cc(Nc4ccc5c(c4)OCO5)ccc3N=C2N)c1)C1CCCCC1 [Compound 441] | <30 | 29 | 48 |
| CSc1ccc(Nc2ccc3c(c2)CN(Cc2cccc(C(=O)N(C)C4CCCCC4)c2)C(N)=N3)cc1 [Compound 442] | <30 | 58 | 101 |
| NC1=Nc2ccc(Oc3ccccc3)cc2CN1Cc1cccc(C(=O)N2CCCCC2)c1 [Compound 443] | <30 | 39 | 67 |
| CC(C)[C@@H](CCC(=O)N(C)C1CCCCC1)N1Cc2cc(Oc3ccccc3)ccc2N=C1N [Compound 444] | <30 | <30 | 30 |
| NC1=Nc2ccc(Oc3ccccc3)cc2CN1Cc1cccc(C(=O)NC2CCCCC2)c1 [Compound 451] | <30 | <30 | <30 |
| NC1=Nc2ccc(Oc3ccccc3)cc2CN1C(CCCC(=O)N1CCCCC1)CCC(=O)N1CCCCC1 (stereo not drawn) [Compound 452] | <30 | 42 | 78 |
| CN(C(=O)c1ccccc1CN1Cc2cc(Oc3ccccc3)ccc2N=C1N)C1CCCCC1 [Compound 463] | <30 | <30 | <30 |
